The CC50 is the concentration at which the toxic effect on the cells reaches its halfway point. Higher therefore signals better tolerance by the cells. In general, solubility refers to how much of the substance goes into solution per volume. Read a low solubility as little dissolved substance. By bioavailability is commonly meant dose-corrected exposure relative to a reference, in per cent. For orientation: IC50 means the concentration that gives 50% inhibition. One may read the inhibition as the relative decrease from the control value, in per cent.

Series [1] in a line: Cytotoxicity (CC50) during the luciferase gene reporter assay. It counts as cell-based. To be noted: human, HEK293 cells; short treatment duration of the luciferase gene reporter assay. In general terms: A reporter such as luciferase makes a cellular process visible.
Another series in a line: physchem. To be noted: water, aqueous solubility. As to the method:
(§1) The ADMET and PK properties of YA6060 was determined.
Determination of physiochemical properties. The profiles of six selected analogs is estimated in silico, and selected Axin stabilizers are evaluated in in vitro assays: the aqueous solubility is determined using a multiscreen solubility filter plate (Millipore, Billerica, MA) coupled with LC-MS/MS, as performed for the already synthesized YA6060 analogs; the cell viability assays on selected analogs is measured using HEK293 cells; the intestinal permeability by determining the transport from the apical to the basolateral (A to B) in Caco-2 monolayers; the metabolic stability by incubating the compounds with mouse microsomes and liver tissue S9 fraction and analyzing by LC-MS/MS.

A short description of a further series: in vivo. As to conditions: C57/BL6, mouse, in vivo, po. The protocol:
as §1
PK/Tox. The four selected compounds from in vitro evaluation above are subjected to PK and toxicity assessment in C57/BL6 mice. […] Compound concentrations is determined by LC/MS/MS. PK analysis is carried out on Phoenix Winnolin using non-compartmental analysis and compartment models. Compound accumulation in major tissues, including liver, kidney, heart, brain and intestine, are quantified. […] For study ii, a half number of mice per group are sacrificed immediately after the 3-week course and the remaining after a 2-week washout period to assess delayed toxicity. In toxicity studies, blood is collected upon euthanasia for liver and renal chemistries and complete blood counts, and major organs harvested and examined macro- and microscopically by veterinarian pathologists. It is expected that an understanding of PK properties, such as bioavailability, AUC, clearance, and toxic effects, such as general tolerance and specific toxicity in the liver, kidney, other major organs, and particularly Wnt-dependent tissues, such as intestine, stomach, and skin is established for these selected compounds.

The subject of series [2] is Wnt signaling in SW480 cells. In words: Luciferase gene reporter (TOPflash) assay in SW480 cells. The class given is cell-based, human.
Series [3] relates to Wnt signaling in SW620 cells. In words: Luciferase gene reporter (TOPflash) assay in SW620 cells. It counts as cell-based. To be noted: Homo sapiens, SW-620, read-out: IC50, inhibition of Wnt signaling.
A further series deals with HT29 cells. In words: Viability of HT29 cells. The class given is cell-based. As to conditions: Homo sapiens, HT-29, read-out: IC50, cell viability.
In series [4] the test system is AMPK. In words: Western blotting of phosphorylated AMPK in HEK293 cells. It counts as cell-based. To be noted: 100 nM, 24 h. As to the method:
(§2) FIG. 6A-FIG. 6E illustrate the development of Axin stabilizers with dual activities of Wnt inhibition and AMPK activation. […] HEK293 cells were used. B&C: 100 nM compounds, 24 h. FIG. 6D is a table showing the activity profile of YA6060. F=bioavailability; soubility is aqueous solubility.
(§3) A dual-luciferase gene reporter assay was used to test inhibitory activities of new compounds on Wnt signaling. […] Axin is also reported to form a complex with AMPK and its upstream kinase LKB1 (FIG. 12A and FIG. 12B) to facilitate AMPK activation. Therefore, the effects of new compounds on AMPK was examined. […] YA6060 and its analogs had dual activities of potent Wnt signaling inhibition and AMPK activation, which were dependent on the levels of scaffolding protein Axin.

The target in a further series is β-catenin (Homo sapiens (Human), UniProt P35222). In words: Western blotting of β-catenin in HEK293 cells. It counts as cell-based. As to conditions: 100 nM, 24 h. The protocol: as §2, §3
(Immunoblotting shows a protein as a band on a membrane.)

In the next series the target is Axin 1 (Homo sapiens (Human), UniProt O15169). In words: Western blotting of Axin 1 in HEK293 cells. It counts as cell-based. To be noted: 100 nM, 24 h. As to the method: as §2, §3
The subject of series [5] is SW480, SW620, and HT29 cells. In words: Colony formation assay. It counts as cell-based. An excerpt:
FIG. 23A is an image illustrating a colony formation assay. […] The orange circle indicates cells in early apoptosis.

Another series concerns SW620 xenograft. In words: SW620 xenograft in nude mice. It counts as in vivo.
The subject of series [6] is AMPK. In words: AMPK activation in SW620 cells (immunoblotting). It counts as cell-based. The protocol: HEK293 cells were stained with anti-axin-1 or DAPI and studied under fluorescence microscopy. FIG. 26B is an image illustrating enhanced AMPK phosphorylation by Axin overexpression (empty pcDNA3 vs. pcDNA3-Axin-1) in HEK293 cells. […] See FIG. 23A-FIG. 23C for Axin knockdown. […] Cells were treated for 24 h.
Treatment of compound YW2049 indicated no effects on total protein levels of AMPK and ACC in SW620 cells.
The effects of FX analogs in Axin stabilization and AMPK activation were further studied by genetic manipulation of Axin. Axin overexpression led to enhanced AMPK activation (FIG. 26A and FIG. 26B). In contrast, it has been reported that knockdown of Axin in cells and in mouse liver impairs AMPK activation. […] This timeline is consistent with the reports that Axin can form a complex with AMPK.

Another series deals with RPS6KA3 (Homo sapiens (Human), UniProt P51812). In words: Off-target kinase panel, RPS6KA3. To be noted: read-out: inhibition of RPS6KA3.
Chain of RPS6KA3 (P51812 whole entry, species assumed): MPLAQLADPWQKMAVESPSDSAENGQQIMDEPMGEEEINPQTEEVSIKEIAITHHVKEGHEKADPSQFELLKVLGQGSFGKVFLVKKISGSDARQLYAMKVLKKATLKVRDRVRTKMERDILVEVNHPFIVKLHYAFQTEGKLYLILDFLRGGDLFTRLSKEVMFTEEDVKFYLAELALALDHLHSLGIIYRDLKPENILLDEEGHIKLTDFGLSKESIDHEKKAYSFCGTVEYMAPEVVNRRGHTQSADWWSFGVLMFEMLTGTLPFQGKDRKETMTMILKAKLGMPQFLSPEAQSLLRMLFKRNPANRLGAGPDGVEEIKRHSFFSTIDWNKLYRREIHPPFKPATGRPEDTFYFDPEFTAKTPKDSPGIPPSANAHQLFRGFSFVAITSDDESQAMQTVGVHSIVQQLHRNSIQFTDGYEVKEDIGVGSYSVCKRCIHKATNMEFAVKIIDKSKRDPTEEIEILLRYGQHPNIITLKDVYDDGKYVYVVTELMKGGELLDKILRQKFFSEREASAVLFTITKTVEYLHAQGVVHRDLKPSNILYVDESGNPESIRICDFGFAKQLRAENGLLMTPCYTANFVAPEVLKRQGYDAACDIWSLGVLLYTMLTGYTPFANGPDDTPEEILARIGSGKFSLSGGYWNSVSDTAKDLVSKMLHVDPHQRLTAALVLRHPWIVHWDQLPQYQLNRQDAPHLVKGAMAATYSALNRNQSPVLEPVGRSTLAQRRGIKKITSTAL
The test system of another series is SW480 cells. In words: Mitochondrial function in SW480 cells.
For series [7], the system named is Wnt/β-Catenin signaling pathway. In words: Wnt signaling luciferase (TOPflash) reporter gene assay. It counts as cell-based. To be noted: luciferase reporter gene assay; mean of three independent experiments; read-out: IC50 (nM) to inhibit the Wnt signaling activity. From the text: A dual-luciferase gene reporter assay was used to test inhibitory activities of new compounds on Wnt signaling. […] Therefore, the effects of new compounds on AMPK was examined. […]

Another series has as its system HEK293 cells. In words: Cytotoxicity (CC50) during the luciferase gene reporter assay. It counts as cell-based. To be noted: short treatment duration of the luciferase gene reporter assay.

For the molecule `Cc1c(C(=O)Nc2ccc3ccccc3n2)cnn1-c1ccccc1Br` [YW2065], in series [1], the CC50 was more than 92000 nM. The molecule also came in with a solubility in the series “physchem” of less than 10 µg/mL. The molecule further showed a bioavailability in “in vivo” of 13%. The “extent of inhibition of Wnt signaling activity in reporter assays” value in series [2] was “could abolish Wnt activity at high concentrations”. The IC50 came out at 1.2 nM in series [2] (Homo sapiens, read-out: IC50, inhibition of Wnt signaling); 0.19 nM in [3]; 17000 nM in the series with HT29 cells. For the same molecule, the “levels of phosphorylated AMPK (p-AMPK)” value with AMPK [4] is given as “significantly increased”. Besides, the “protein level of β-catenin” value on β-catenin is “decreased”. The “level of Axin 1” value at Axin 1 was “stabilizing”. Also, in series [5], the colony formation result is reported as “inhibited the colony formation”. Also, the “tumor growth and tumor weight” value in the series on SW620 xenograft (i.p. each day, dose-dependent) is “reduced both tumor growth”. The body weight gain entry in the series on SW620 xenograft (mouse, in vivo) is recorded as “not affected”. Further, the p-AMPK levels result with AMPK [6] is on record as “increased”. In addition, the inhibition at 1000 µM at RPS6KA3 was found to be 39%. The “O2 consumption rate and ATP production” value in the series with SW480 cells is recorded as “reduced O2 consumption rate”.
In the case of `Cc1ccccc1-n1nnc(C(=O)Nc2ccc3cc(CN4CCNCC4)ccc3n2)c1C` [YA10951, 5-Methyl-N-(6-(piperazin-1-ylmethyl)quinolin-2-yl)-1-(o-tolyl)-1H-1,2,3-triazole-4-carboxamide], the IC50 in series [7] worked out at 4.3 nM. In the series on HEK293 cells, this molecule gave a CC50 of more than 92000 nM.

These data come from patent US20240279201A1, “DUAL WNT SIGNALING PATHWAY INHIBITORS AND AMPK ACTIVATORS FOR TREATMENTS OF DISEASE” (priority 2021, published 2024).
